Results on nine compounds are retold here after BindingDB's records for doi:10.1016/j.ejmech.2009.11.010 (Chinese Academy of Sciences, 2010).

SMILES strings stand for the structures.

This test addresses T1, Cathepsin K (Homo sapiens, UniProt P43235).
T1 sequence (P43235 whole entry): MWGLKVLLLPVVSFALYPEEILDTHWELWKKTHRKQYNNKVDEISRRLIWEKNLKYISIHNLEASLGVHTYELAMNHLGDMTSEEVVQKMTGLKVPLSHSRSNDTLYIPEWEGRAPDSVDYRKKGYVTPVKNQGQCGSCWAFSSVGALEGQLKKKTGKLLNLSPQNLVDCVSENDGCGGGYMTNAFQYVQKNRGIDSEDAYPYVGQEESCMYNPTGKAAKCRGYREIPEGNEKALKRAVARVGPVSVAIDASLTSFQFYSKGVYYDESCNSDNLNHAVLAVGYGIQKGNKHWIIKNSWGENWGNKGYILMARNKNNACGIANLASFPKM
Kind of test: Inhibition of human cathepsin K.
As to `CCCC[C@H](NC(=O)O[C@H](Cc1nnc(-c2ccc(C(F)(F)F)cc2)o1)C(C)(C)C)C(=O)C(=O)NN1CCOC1=O` [(1R)-2,2-DIMETHYL-1-({5-[4-(TRIFLUOROMETHYL)PHENYL]-1,3,4-OXADIAZOL-2-YL}METHYL)PROPYL (1S)-1-{OXO[(2-OXO-1,3-OXAZOLIDIN-3-YL)AMINO]ACETYL}PENTYLCARBAMATE], the half-maximal inhibitory concentration (IC50) was 0.129 nM.
In the case of `CCCC[C@H](NC(=O)O[C@H](Cc1nnc(-c2ccc(F)cc2)o1)C(C)(C)C)C(=O)C(=O)NCc1cccnc1` [(R)-1-(5-(4-fluorophenyl)-1,3,4-oxadiazol-2-yl)-3,3-dimethylbutan-2-yl(S)-1,2-dioxo-1-(pyridin-3-ylmethylamino)heptan-3-ylcarbamate], half-maximal inhibition (IC50) required 2.82 nM.
Regarding `CCCC[C@H](NC(=O)O[C@H](Cc1nnc(-c2ccccc2)o1)C(C)(C)C)C(=O)C(=O)N[C@H](C)c1ccccc1` [(R)-3,3-dimethyl-1-(5-phenyl-1,3,4-oxadiazol-2-yl)butan-2-yl(S)-1,2-dioxo-1-((R)-1-phenylethylamino)heptan-3-ylcarbamate], half-maximal inhibition (IC50) was put at 0.24 nM.
Regarding `CCCC[C@H](NC(=O)O[C@H](CN1CCN(c2ccc(C(F)(F)F)cc2)C1=O)C(C)(C)C)C(=O)C(=O)Nc1ccn[nH]1` [(S)-3,3-dimethyl-1-(2-oxo-3-(4-(trifluoromethyl)phenyl)imidazolidin-1-yl)butan-2-yl(S)-1-(1H-pyrazol-5-ylamino)-1,2-dioxoheptan-3-ylcarbamate], the midpoint of inhibition, the IC50, lay at 0.339 nM. The IC50 values of the last two compounds are within 1.5-fold of each other.
`CCCC[C@H](NC(=O)O[C@H](Cc1nnc(-c2ccc(F)cc2)o1)C(C)(C)C)C(=O)C(=O)N[C@H](C)c1ccccc1` [[(S)-1-(1-Phenyl-ethylaminooxalyl)-pentyl]-carbamic acid (R)-1-[5-(4-fluoro-phenyl)-[1,3,4]oxadiazol-2-ylmethyl]-2,2-dimethyl-propyl ester] displayed an IC50 of 0.372 nM.
Consider `CCCC[C@H](NC(=O)O[C@H](Cc1nnc(-c2ccc(C(F)(F)F)cc2)o1)C(C)(C)C)C(=O)C(=O)N[C@H](C)c1ccccc1` [[(S)-1-(1-Phenyl-ethylaminooxalyl)-pentyl]-carbamic acid (R)-2,2-dimethyl-1-[5-(4-trifluoromethyl-phenyl)-[1,3,4]oxadiazol-2-ylmethyl]-propyl ester], for which the IC50 worked out at 0.407 nM.
`CCCC[C@H](NC(=O)O[C@@H](Cc1nnc(-c2ccccc2)o1)C(C)(C)C)C(=O)C(=O)N[C@H](C)c1ccccc1` [[(S)-1-(1-Phenyl-ethylaminooxalyl)-pentyl]-carbamic acid (S)-2,2-dimethyl-1-(5-phenyl-[1,3,4]oxadiazol-2-ylmethyl)-propyl ester] showed an IC50 of 457 nM. This IC50 lies about 1100-fold higher than the previous one.
`CCCC[C@H](NC(=O)O[C@H](Cc1nnc(-c2ccc(C(F)(F)F)cc2)o1)C(C)(C)C)C(=O)C(=O)Nc1ccn[nH]1` [[(S)-1-(2H-Pyrazol-3-ylaminooxalyl)-pentyl]-carbamic acid (R)-2,2-dimethyl-1-[5-(4-trifluoromethyl-phenyl)-[1,3,4]oxadiazol-2-ylmethyl]-propyl ester]: half-maximal inhibition (IC50) required 0.0288 nM. This IC50 lies about 16000-fold lower than the previous one.
The value for `CCCC[C@H](NC(=O)O[C@H](Cn1cnc(-c2ccc(C(F)(F)F)cc2)c1)C(C)(C)C)C(=O)C(=O)Nc1nccs1` [[(S)-1-(Thiazol-2-ylaminooxalyl)-pentyl]-carbamic acid (S)-2,2-dimethyl-1-[4-(4-trifluoromethyl-phenyl)-imidazol-1-ylmethyl]-propyl ester] was 5.75 nM.
